PMC12396409, “Screening and hit evaluation of a microbial metabolite library against the pathogenic Plasmodium falciparum and Toxoplasma gondii parasites” (International Journal for Parasitology: Drugs and Drug …, 2025)
Where two headings read alike, the source gives them in different places.

Experiments:
[1] = tested on: P. falciparum 3D7 parasites; assay: P. falciparum growth inhibition assay, 2-cycle (120 h treatment), delayed-death screen and dose-response; assay type: cell-based, Plasmodium falciparum; settings: for activity at 2 µg/mL: Plasmodium falciparum
[2] = tested on: T. gondii RH strain (RH-Tub-eYFP) tachyzoites; assay: microbe, parasite or virus in culture; assay type: cell-based, Toxoplasma gondii; settings: 72 h, 72 h; for percent parasite growth at 2 µg/mL: Toxoplasma gondii
[3] = tested on: P. falciparum 3D7 parasites; assay: P. falciparum growth inhibition assay, 1-cycle (72 h treatment), SYBR DNA staining (library screen at 2 μg/mL and dose-response); assay type: cell-based, Plasmodium falciparum; settings: for activity at 2 µg/mL: Plasmodium falciparum
[4] = P. falciparum, 120 h, screen at 2 μg/mL, replicate 1
[5] = P. falciparum, 120 h, screen at 2 μg/mL, replicate 2
[6] = T. gondii, screen at 2 μg/mL, replicate 1
[7] = T. gondii, screen at 2 μg/mL, replicate 2
[8] = P. falciparum, 72 h, screen at 2 μg/mL, replicate 1
[9] = P. falciparum, 72 h, screen at 2 μg/mL, replicate 2
[10] = library screen at 2 μg/mL, 120 h, % growth, replicate 1
[11] = library screen at 2 μg/mL, 120 h, % growth, replicate 2
[12] = library screen at 2 μg/mL, % growth, replicate 1
[13] = library screen at 2 μg/mL, % growth, replicate 2
[14] = library screen at 2 μg/mL, 72 h, % growth, replicate 1
[15] = library screen at 2 μg/mL, 72 h, % growth, replicate 2

Structure (SMILES): CCCCCCCCCC(=O)N[C@H]1[C@H](Oc2c3cc4cc2Oc2ccc(cc2Cl)[C@@H](O[C@@H]2O[C@H](CO)[C@@H](O)[C@H](O)[C@H]2NC(C)=O)[C@@H]2NC(=O)[C@H](NC(=O)[C@@H]4NC(=O)[C@H]4NC(=O)[C@H](Cc5ccc(c(Cl)c5)O3)NC(=O)[C@H](N)c3ccc(O)c(c3)Oc3cc(O)cc4c3)c3ccc(O)c(c3)-c3c(O[C@H]4O[C@H](CO)[C@@H](O)[C@H](O)[C@@H]4O)cc(O)cc3[C@@H](C(=O)O)NC2=O)O[C@H](CO)[C@@H](O)[C@@H]1O [Teicoplanin A2-3]
- activity at 2 µg/mL ([1]; 3D7, 120 h, P. falciparum, 120 h, parasite screen 2 μg/mL, % growth, replicate 1, read-out: Pf_120h_%Growth_Rep1): 110%
- activity at 2 µg/mL ([1]; 3D7, 120 h, P. falciparum, 120 h, parasite screen 2 μg/mL, % growth, replicate 2, read-out: Pf_120h_%Growth_Rep2): 97%
- percent parasite growth at 2 µg/mL ([2]; T. gondii, parasite screen 2 μg/mL, % growth, replicate 1, read-out: Tg_72h_%Growth_Rep1): 112%
- percent parasite growth at 2 µg/mL ([2]; T. gondii, parasite screen 2 μg/mL, % growth, replicate 2, read-out: Tg_72h_%Growth_Rep2): 84.1%
- activity at 2 µg/mL ([3]; 3D7, 72 h, P. falciparum, 72 h, parasite screen 2 μg/mL, % growth, replicate 1, read-out: Pf_72h_%Growth_Rep1): 88.9%
- activity at 2 µg/mL ([3]; 3D7, 72 h, P. falciparum, 72 h, parasite screen 2 μg/mL, % growth, replicate 2, read-out: Pf_72h_%Growth_Rep2): 128%

Structure (SMILES): C/C=C/C/C=C/CCC(=O)[C@H]1O[C@H]1C(N)=O [Cerulenin]
- activity at 2 µg/mL ([1]; 3D7, P. falciparum, 120 h, screen at 2 μg/mL, replicate 1, read-out: Pf_120h_%Growth_Rep1): 137%
- activity at 2 µg/mL ([1]; 3D7, P. falciparum, 120 h, screen at 2 μg/mL, replicate 2, read-out: Pf_120h_%Growth_Rep2): 85.1%
- percent parasite growth at 2 µg/mL ([2]; T. gondii, screen at 2 μg/mL, replicate 1, read-out: Tg_72h_%Growth_Rep1): 79%
- percent parasite growth at 2 µg/mL ([2]; T. gondii, screen at 2 μg/mL, replicate 2, read-out: Tg_72h_%Growth_Rep2): 81.8%
- activity at 2 µg/mL ([3]; 3D7, P. falciparum, 72 h, screen at 2 μg/mL, replicate 1, read-out: Pf_72h_%Growth_Rep1): 86.4%
- activity at 2 µg/mL ([3]; 3D7, P. falciparum, 72 h, screen at 2 μg/mL, replicate 2, read-out: Pf_72h_%Growth_Rep2): 80.4%

Structure (SMILES): C=C1C(=O)C[C@@H]2[C@H]3CC[C@@H](C(=O)O)[C@@]12CC3(C)C [Terrecyclic Acid]
- Pf_120h_%Growth_Rep1 [1, 4]: 35.11%
- Pf_120h_%Growth_Rep2 [1, 5]: 10.18%
- Tg_72h_%Growth_Rep1 [2, 6]: 40.31%
- Tg_72h_%Growth_Rep2 [2, 7]: 50.53%
- Pf_72h_%Growth_Rep1 [3, 8]: 17.94%
- Pf_72h_%Growth_Rep2 [3, 9]: 13.49%

Structure (SMILES): C=C1NC(=O)[C@H](C(C)C)NC1=O [Cyclo(delta-Ala-L-Val)]
- Pf_120h_%Growth_Rep1 [1, 4]: 80.27%
- Pf_120h_%Growth_Rep2 [1, 5]: 78.77%
- Tg_72h_%Growth_Rep1 [2, 6]: 112.17%
- Tg_72h_%Growth_Rep2 [2, 7]: 87.98%
- Pf_72h_%Growth_Rep1 [3, 8]: 78.49%
- Pf_72h_%Growth_Rep2 [3, 9]: 81.94%

Structure (SMILES): CO[C@@H]1[C@@H](OC(N)=O)[C@@H](O)[C@H](Oc2ccc3c(O)c(NC(=O)c4ccc(O)c(CC=C(C)C)c4)c(=O)oc3c2C)OC1(C)C [BIA-N1306]
- Pf_120h_%Growth_Rep1 ([1]; P. falciparum 3D7, 120 h, parasite screen at 2 μg/mL, % growth, replicate 1): 15.07%
- Pf_120h_%Growth_Rep2 ([1]; P. falciparum 3D7, 120 h, parasite screen at 2 μg/mL, % growth, replicate 2): 13.28%
- Tg_72h_%Growth_Rep1 ([2]; T. gondii, parasite screen at 2 μg/mL, % growth, replicate 1): 9.17%
- Tg_72h_%Growth_Rep2 ([2]; T. gondii, parasite screen at 2 μg/mL, % growth, replicate 2): 93.65%
- Pf_72h_%Growth_Rep1 ([3]; P. falciparum 3D7, 72 h, parasite screen at 2 μg/mL, % growth, replicate 1): 77.54%
- Pf_72h_%Growth_Rep2 ([3]; P. falciparum 3D7, 72 h, parasite screen at 2 μg/mL, % growth, replicate 2): 85.29%

Structure (SMILES): Cc1c2c(c(O)c3c(O)cccc13)C(=O)O[C@@H]2[C@H]1[C@H](N(C)C)C(O)=C(C(N)=O)C(=O)[C@@H]1O [Apooxytetracycline, beta-]
- Pf_120h_%Growth_Rep1 [1, 10]: 69.86%
- Pf_120h_%Growth_Rep2 [1, 11]: 97.44%
- Tg_72h_%Growth_Rep1 [2, 12]: 117.82%
- Tg_72h_%Growth_Rep2 [2, 13]: 102.07%
- Pf_72h_%Growth_Rep1 [3, 14]: 86.47%
- Pf_72h_%Growth_Rep2 [3, 15]: 89.55%

Structure (SMILES): CN1C(=O)c2ccccc2-n2c(nc3ccccc3c2=O)[C@@H]1Cc1ccccc1 [Benzomalvin A]
- Pf_120h_%Growth_Rep1 [1, 10]: 152.22%
- Pf_120h_%Growth_Rep2 [1, 11]: 94.98%
- Tg_72h_%Growth_Rep1 [2, 12]: 76.13%
- Tg_72h_%Growth_Rep2 [2, 13]: 90.69%
- Pf_72h_%Growth_Rep1 [3, 14]: 68.69%
- Pf_72h_%Growth_Rep2 [3, 15]: 85.94%

Structure (SMILES): COc1ccc2c(c1)C(=O)NC(Cc1ccccc1)C(=O)NCCC(=O)N1CCCC1C(=O)N2 (stereo not drawn) [Aspercolorin]
- Pf_120h_%Growth_Rep1 [1, 10]: 146.59%
- Pf_120h_%Growth_Rep2 [1, 11]: 102.81%
- Tg_72h_%Growth_Rep1 [2, 12]: 77.01%
- Tg_72h_%Growth_Rep2 [2, 13]: 95.41%
- Pf_72h_%Growth_Rep1 [3, 14]: 96.39%
- Pf_72h_%Growth_Rep2 [3, 15]: 82.46%
